# Results: patent US10941158B2, “Pyrazole ACC inhibitors and uses thereof” (Gilead Apollo, LLC, priority 2015, dated 2021)
# Where two headings read alike, the source gives them in different places.
# Columns and labels:
# human (hACC2) ACC2 = human (hACC2) ACC2 (Homo sapiens, UniProt O00763); experiment: In vitro Acetyl-CoA Carboxylase (ACC) inhibition assay (ADP-Glo), hACC2; type: biochemical
# Description: The detailed procedure is as follows. […] 10 μL ADP glo reagent was added. […] 20 μL kinase detection reagent was added.
# “NA” stands for “not assayed.”
# C. krusei ATCC 6258 = experiment: Anti-Fungal (Candida) Activity Assay, broth microtiter MIC; type: cell-based; details: Pichia kudriavzevii, read-out: MIC C. krusei ATCC 6258
# Description: (§1) Compounds of the present invention were evaluated in an Anti-Fungal Activity Assay. An exemplary procedure for the assay, which measures the susceptibility of various Candida species to anti-fungal compounds, follows. Compounds to be tested (including fluconazole and amphotericin B) were dissolved in DMSO to obtain a solution having a concentration of 1 mg/mL. […] All species were grown from frozen stock by directly plating on to freshly prepared Sabouraud Dextrose agar (BD, Difco) and incubated overnight in ambient air at 35° C. for 24 h. A direct suspension was prepared in RPMI 1640+MOPS (Lonza, Biowhittaker) by taking individual colonies from the overnight cultures using sterile swabs soaked in sterile saline. The concentration of the suspension was determined using pre-determined standard curves. […] Broth microtiter MIC challenge plates were prepared following CLSI guidelines (M27-A3, Vol. 28 No. 14). The original CLSI guidelines focused on reading Candida MICs after 48 h of incubation. As reading after only 24 h offers a clear advantage of patient care, QC limits are being established for all drugs at 24 h. That being said there are no known interpretive breakpoints for amphotericin B at 24 h and the current fluconazole interpretive breakpoints are based on a 48 h reading. The MIC for the test compounds were recorded at 48 h. All MIC determinations were achieved by visually comparing the growth found in the antibiotic challenged wells to that of the growth control.
# [1] = tested on: C. parapsilosis ATCC 22019; experiment: as above; type: cell-based; details: Lodderomyces parapsilosis, read-out: MIC C. parapsilosis ATCC 22019
# Description: as §1
# C. albicans ATCC 90028 = experiment: as above; type: cell-based; details: read-out: MIC C. albicans ATCC 90028
# Description: as §1
# Rhizoctonia solani (Rs) = experiment: Growth inhibition assay of fungal pathogens; type: cell-based; details: 48 h, read-out: Concentration at 90% Inhibition Rs
# Description: (§2) Compounds of the present invention were evaluated in a growth inhibition assay to determine the ability to control the growth of fungal pathogens, such as Botrtyis cinerea (Bc), Collectotrichum graminicola (Cg). Diplodia maydis (Dm), Fusarium moniliforme (Fm), Fusarium virguliforme (Fv), Phytophthora capsici (Pc), Rhizoctonia solani (Rs), and Septoria tritici (St). Compounds to be tested were dissolved in DMSO at 2.5 mg/ml to produce compound stock solutions (“stocks”). Stocks were diluted with DMSO by a five-fold dilution in a 96-well stock plate, and two sets of final concentrations of 50, 10, and 2 ppm or 2, 0.4, and 0.08 ppm were obtained in vitro. A set of positive controls was also prepared, with various concentrations of Soraphen (2, 0.4, and 0.08 ppm), Metalaxyl (1.1, 0.22, and 0.04 ppm), and Metconazole (2, 0.4, and 0.08 ppm or 0.2, 0.04, and 0.008 ppm) after the five-fold dilutions. Negative controls on each plate included 2% DMSO, water, and a blank (media+2% DMSO). Fungal spores were isolated from previously sub-cultured plates of Botrtyis cinerea (Bc). Collectotrichum graminicola (Cg). Diplodia maydis (Dm), Fusarium moniliforme (Fm), Fusarium virguliforme (Fv), Phytophthora capsici (Pc), and Septoria tritici (St). The isolated spores were diluted to individual concentrations with a 17% V8 liquid media. For Rhizoctonia solani (Rs) and Pythium irregulare, 1.5 mm mycelial plugs were used in place of spores and ¼ Potato Dextrose Broth (PDB) was used for dilution. The spore concentrations and plug sizes were based on growth curves generated at 48 hours for each pathogen. In a second 96-well plate, the spores or mycelial plugs, media, diluted compound solutions, and controls were combined. Once the compound was added, a true final concentration of compound in each well was measured by an OD600 reading, which adjusted for any compound precipitation that might have occurred in the well. Plate readings were repeated at both 24 and 48 hours. The blank negative control was used as a background subtraction. Additional visual ratings were performed at both 24 and 48 hours for checking on precipitation and confirming efficacy. Visual and OD600 ratings of the compounds at 48 hours were compared to the 2% DMSO negative control, and the percent of pathogen growth inhibition was determined based on those values.
# Botrtyis cinerea (Bc) = experiment: Growth inhibition assay of fungal pathogens; type: cell-based; details: 48 h, read-out: Concentration at 90% Inhibition Bc
# Description: as §2
# [2] = tested on: Fusarium moniliforme (Fm); experiment: Growth inhibition assay of fungal pathogens; type: cell-based; details: for IC90: Fusarium verticillioides, 48 h, read-out: Concentration at 90% Inhibition Fm
# Description: as §2
# [3] = tested on: Phytophthora capsici (Pc); experiment: Growth inhibition assay of fungal pathogens; type: cell-based; details: for IC90: Phytophthora capsici, read-out: Concentration at 90% Inhibition Pc
# Description: as §2
# [4] = tested on: Collectotrichum graminicola (Cg); experiment: Growth inhibition assay of fungal pathogens; type: cell-based; details: 48 h, read-out: Concentration at 90% Inhibition Cg
# Description: as §2
# Septoria tritici (St) = experiment: Growth inhibition assay of fungal pathogens; type: cell-based; details: for IC90: Zymoseptoria tritici, read-out: Concentration at 90% Inhibition St
# Description: as §2
# Diplodia maydis (Dm) = experiment: Growth inhibition assay of fungal pathogens; type: cell-based; details: Stenocarpella maydis, 48 h, read-out: Concentration at 90% Inhibition Dm
# Description: as §2
# [5] = tested on: Fusarium virguliforme (Fv); experiment: Growth inhibition assay of fungal pathogens; type: cell-based; details: 48 h
# Description: as §2
# [6] = read-out: Concentration at 90% Inhibition Fv, Table 4a, 48 hours
# [7] = read-out: Concentration at 90% Inhibition Fv, Table 4b, 48 hours
# [8] = ATCC6258, 3 replicates, MIC recorded at 48 h
# [9] = ATCC22019, 3 replicates, MIC recorded at 48 h
# [10] = ATCC90028, 3 replicates, MIC recorded at 48 h
# [11] = Table 4a, 48 hours, read-out: Concentration at 90% Inhibition Fv
# [12] = Table 4b, 48 hours, read-out: Concentration at 90% Inhibition Fv
# Chain of human (hACC2) ACC2 (O00763 whole entry): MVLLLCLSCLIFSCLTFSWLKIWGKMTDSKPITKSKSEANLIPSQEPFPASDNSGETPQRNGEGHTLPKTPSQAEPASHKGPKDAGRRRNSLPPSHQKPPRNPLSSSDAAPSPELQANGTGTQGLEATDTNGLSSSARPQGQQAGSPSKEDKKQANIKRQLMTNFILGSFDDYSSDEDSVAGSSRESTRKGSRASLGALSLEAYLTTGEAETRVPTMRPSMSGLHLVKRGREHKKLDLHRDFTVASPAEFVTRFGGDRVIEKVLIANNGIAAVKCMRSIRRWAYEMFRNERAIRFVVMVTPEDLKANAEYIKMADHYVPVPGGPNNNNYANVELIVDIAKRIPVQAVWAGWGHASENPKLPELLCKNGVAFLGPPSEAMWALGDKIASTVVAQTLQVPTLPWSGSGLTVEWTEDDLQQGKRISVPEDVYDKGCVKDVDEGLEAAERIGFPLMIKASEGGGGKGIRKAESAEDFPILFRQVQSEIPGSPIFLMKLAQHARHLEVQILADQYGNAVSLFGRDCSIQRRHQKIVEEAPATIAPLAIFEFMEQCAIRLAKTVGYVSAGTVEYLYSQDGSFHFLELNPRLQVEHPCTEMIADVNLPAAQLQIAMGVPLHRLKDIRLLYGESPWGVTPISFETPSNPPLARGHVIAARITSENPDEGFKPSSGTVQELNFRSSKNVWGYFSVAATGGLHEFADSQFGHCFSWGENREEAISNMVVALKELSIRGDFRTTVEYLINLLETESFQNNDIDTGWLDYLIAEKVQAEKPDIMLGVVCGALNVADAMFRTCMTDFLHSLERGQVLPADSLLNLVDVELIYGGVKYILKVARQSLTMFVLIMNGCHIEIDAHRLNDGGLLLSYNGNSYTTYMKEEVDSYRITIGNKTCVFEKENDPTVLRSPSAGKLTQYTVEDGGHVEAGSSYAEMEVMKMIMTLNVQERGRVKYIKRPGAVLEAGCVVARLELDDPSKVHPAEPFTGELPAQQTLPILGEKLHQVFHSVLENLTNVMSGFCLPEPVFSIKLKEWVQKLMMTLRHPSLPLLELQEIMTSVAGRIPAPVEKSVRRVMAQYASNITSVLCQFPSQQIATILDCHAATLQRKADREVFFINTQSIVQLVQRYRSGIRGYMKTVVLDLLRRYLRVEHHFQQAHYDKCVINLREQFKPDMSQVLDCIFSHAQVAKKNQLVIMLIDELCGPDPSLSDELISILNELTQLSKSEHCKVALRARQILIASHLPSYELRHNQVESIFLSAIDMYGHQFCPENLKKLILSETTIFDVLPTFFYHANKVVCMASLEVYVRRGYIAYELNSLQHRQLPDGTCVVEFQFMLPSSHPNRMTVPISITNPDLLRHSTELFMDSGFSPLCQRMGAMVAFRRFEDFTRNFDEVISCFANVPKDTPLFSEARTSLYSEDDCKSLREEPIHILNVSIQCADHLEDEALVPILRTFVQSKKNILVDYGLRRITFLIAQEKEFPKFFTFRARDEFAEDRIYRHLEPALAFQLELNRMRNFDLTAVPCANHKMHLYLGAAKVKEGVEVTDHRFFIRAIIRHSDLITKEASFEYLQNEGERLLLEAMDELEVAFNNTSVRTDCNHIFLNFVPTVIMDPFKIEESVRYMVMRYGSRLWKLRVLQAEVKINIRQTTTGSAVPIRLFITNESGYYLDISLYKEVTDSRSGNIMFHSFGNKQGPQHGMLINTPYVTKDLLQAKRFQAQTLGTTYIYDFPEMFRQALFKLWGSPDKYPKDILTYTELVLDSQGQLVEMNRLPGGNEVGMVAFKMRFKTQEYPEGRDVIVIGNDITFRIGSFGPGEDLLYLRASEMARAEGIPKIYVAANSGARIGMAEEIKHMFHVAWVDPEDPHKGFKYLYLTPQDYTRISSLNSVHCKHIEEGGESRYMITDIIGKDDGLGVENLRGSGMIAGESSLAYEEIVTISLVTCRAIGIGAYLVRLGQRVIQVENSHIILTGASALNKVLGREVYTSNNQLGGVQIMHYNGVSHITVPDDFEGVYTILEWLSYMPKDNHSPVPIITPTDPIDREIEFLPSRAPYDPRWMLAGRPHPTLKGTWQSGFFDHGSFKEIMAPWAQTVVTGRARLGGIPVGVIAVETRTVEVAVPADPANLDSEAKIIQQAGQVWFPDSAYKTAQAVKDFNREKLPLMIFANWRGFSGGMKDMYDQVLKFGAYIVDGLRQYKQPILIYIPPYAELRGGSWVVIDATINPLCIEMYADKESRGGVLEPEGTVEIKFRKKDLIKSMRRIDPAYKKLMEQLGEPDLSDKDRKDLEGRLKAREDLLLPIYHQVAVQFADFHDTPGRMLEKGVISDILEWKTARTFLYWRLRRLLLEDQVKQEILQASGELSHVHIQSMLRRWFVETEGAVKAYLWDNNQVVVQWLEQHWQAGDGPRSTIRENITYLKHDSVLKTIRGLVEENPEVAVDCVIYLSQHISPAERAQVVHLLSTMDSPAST
SMILES,IC50 (human (hACC2) ACC2),"MIC (C. krusei ATCC 6258; ATCC6258, 48 h)","MIC ([1]; ATCC22019, 48 h)","MIC (C. albicans ATCC 90028; ATCC90028, 48 h)",IC90 (Rhizoctonia solani (Rs); Table 4a),IC90 (Rhizoctonia solani (Rs); Table 4b),IC90 (Botrtyis cinerea (Bc); Table 4a),IC90 (Botrtyis cinerea (Bc); Table 4b),IC90 [2],"Concentration at 90% Inhibition Fm ([2]; Table 4b, 48 hours)","IC90 ([3]; 48 h, Table 4a)","IC90 ([3]; 48 h, Table 4b)",IC90 ([4]; Table 4a),IC90 ([4]; Table 4b),"IC90 (Septoria tritici (St); 48 h, Table 4a)","IC90 (Septoria tritici (St); 48 h, Table 4b)",IC90 (Diplodia maydis (Dm); Table 4a),IC90 (Diplodia maydis (Dm); Table 4b),"IC90 [5, 6]","IC90 [5, 7]",further results
"COc1ccc(F)cc1[C@H](Cn1c(=O)n(C(C)(C)C(=O)NC(C)C)c(=O)c2c(C)c(-n3cccn3)sc21)OC1CCOCC1 [Compound I-6, (R)-2-(1-(2-(5-fluoro-2-methoxyphenyl)-2-((tetrahydro-2H-pyran-4-yl)oxy)ethyl)-5-methyl-2,4-dioxo-6-(1H-pyrazol-1-yl)-1,4-dihydrothieno[2,3-d]pyrimidin-3(2H)-yl)-N-isopropyl-2-methylpropanamide]",10 to 40 nM,0.25 to 1 µg/mL,1.1 to 2 µg/mL,0.25 to 1 µg/mL,> 50 µg/mL,10 µg/mL,2 µg/mL,2 µg/mL,0.4 µg/mL,A (“A” provided a compound concentration of 0.4 ppm at 90% inhibition of fungal pathogens),> 50 µg/mL,> 50 µg/mL,10 µg/mL,2 µg/mL,> 50 µg/mL,> 50 µg/mL,10 µg/mL,2 µg/mL,2 µg/mL,2 µg/mL,–
"COc1ccc(F)cc1[C@H](Cn1c(=O)n(C(C)(C)C(=O)N2CCCC2)c(=O)c2c(C)c(-n3cccn3)sc21)OC1CCOCC1 [Compound I-7, (R)-1-(2-(5-fluoro-2-methoxyphenyl)-2-((tetrahydro-2H-pyran-4-yl)oxy)ethyl)-5-methyl-3-(2-methyl-1-oxo-1-(pyrrolidin-1-yl)propan-2-yl)-6-(1H-pyrazol-1-yl)thieno[2,3-d]pyrimidine-2,4(1H,3H)-dione]",3 to 10 nM,–,–,–,2 µg/mL,2 µg/mL,2 µg/mL,2 µg/mL,–,–,–,–,0.4 µg/mL,0.4 µg/mL,–,–,10 µg/mL,2 µg/mL,–,–,"MIC (C. krusei ATCC 6258; [8]): 0.25 to 1 µg/mL; MIC [1, 9]: 1.1 to 2 µg/mL; MIC (C. albicans ATCC 90028; [10]): 1.1 to 2 µg/mL; IC90 ([2]; Table 4a, 48 hours): 0.08 µg/mL; IC90 ([2]; Table 4b, 48 hours): 0.08 µg/mL; IC90 ([3]; Table 4a, 48 hours): > 50 µg/mL; Concentration at 90% Inhibition Pc ([3]; Table 4b, 48 hours): D (“D” provided a compound concentration of >50 ppm at 90% inhibition of fungal pathogens); Concentration at 90% Inhibition St (Septoria tritici (St); Table 4b, 48 hours): D (“D” provided a compound concentration of >50 ppm at 90% inhibition of fungal pathogens); IC90 (Septoria tritici (St); Table 4a, 48 hours): > 50 µg/mL; IC90 [5, 11]: > 50 µg/mL; IC90 [5, 12]: 10 µg/mL"
"COc1ccc(F)cc1[C@H](Cn1c(=O)n(C(C)(C)C(=O)N2CCCCC2)c(=O)c2c(C)c(-n3cccn3)sc21)OC1CCOCC1 [Compound I-8, (R)-1-(2-(5-fluoro-2-methoxyphenyl)-2-((tetrahydro-2H-pyran-4-yl)oxy)ethyl)-5-methyl-3-(2-methyl-1-oxo-1-(piperidin-1-yl)propan-2-yl)-6-(1H-pyrazol-1-yl)thieno[2,3-d]pyrimidine-2,4(1H,3H)-dione]",10 to 40 nM,0.25 to 1 µg/mL,0.25 to 1 µg/mL,0.25 to 1 µg/mL,> 50 µg/mL,10 µg/mL,2 µg/mL,2 µg/mL,0.08 µg/mL,AA (“AA” provided a compound concentration of 0.08 ppm at 90% inhibition of fungal pathogens),> 50 µg/mL,> 50 µg/mL,2 µg/mL,2 µg/mL,> 50 µg/mL,> 50 µg/mL,10 µg/mL,2 µg/mL,2 µg/mL,2 µg/mL,–
"COc1ccccc1[C@H](Cn1c(=O)n(C(C)(C)C(=O)NC(C)C)c(=O)c2c(C)c(-n3cccn3)sc21)OC1CCOCC1 [Compound I-11, (R)—N-isopropyl-2-(1-(2-(2-methoxyphenyl)-2-((tetrahydro-2H-pyran-4-yl)oxy)ethyl)-5-methyl-2,4-dioxo-6-(1H-pyrazol-1-yl)-1,4-dihydrothieno[2,3-d]pyrimidin-3(2H)-yl)-2-methylpropanamide]",10 to 40 nM,> 4.1 µg/mL,> 4.1 µg/mL,> 4.1 µg/mL,> 50 µg/mL,> 50 µg/mL,> 50 µg/mL,10 µg/mL,2 µg/mL,B (“B” provided a compound concentration of 2.0 ppm at 90% inhibition of fungal pathogens),> 50 µg/mL,> 50 µg/mL,> 50 µg/mL,10 µg/mL,> 50 µg/mL,> 50 µg/mL,> 50 µg/mL,10 µg/mL,> 50 µg/mL,10 µg/mL,–
"COc1ccccc1[C@H](Cn1c(=O)n(C(C)(C)C(=O)N2CCCC2)c(=O)c2c(C)c(-n3cccn3)sc21)OC1CCOCC1 [Compound I-12, (R)-1-(2-(2-methoxyphenyl)-2-((tetrahydro-2H-pyran-4-yl)oxy)ethyl)-5-methyl-3-(2-methyl-1-oxo-1-(pyrrolidin-1-yl)propan-2-yl)-6-(1H-pyrazol-1-yl)thieno[2,3-d]pyrimidine-2,4(1H,3H)-dione]",3 to 10 nM,–,–,–,2 µg/mL,2 µg/mL,> 50 µg/mL,10 µg/mL,–,–,–,–,10 µg/mL,2 µg/mL,–,–,> 50 µg/mL,10 µg/mL,–,–,"MIC (C. krusei ATCC 6258; [8]): 2.1 to 4 µg/mL; MIC [1, 9]: > 4.1 µg/mL; MIC (C. albicans ATCC 90028; [10]): 2.1 to 4 µg/mL; IC90 ([2]; Table 4a, 48 hours): 0.4 µg/mL; IC90 ([2]; Table 4b, 48 hours): 0.4 µg/mL; IC90 ([3]; Table 4a, 48 hours): > 50 µg/mL; Concentration at 90% Inhibition Pc ([3]; Table 4b, 48 hours): D (“D” provided a compound concentration of >50 ppm at 90% inhibition of fungal pathogens); Concentration at 90% Inhibition St (Septoria tritici (St); Table 4b, 48 hours): D (“D” provided a compound concentration of >50 ppm at 90% inhibition of fungal pathogens); IC90 (Septoria tritici (St); Table 4a, 48 hours): > 50 µg/mL; IC90 [5, 11]: > 50 µg/mL; IC90 [5, 12]: 10 µg/mL"
